Values of other authors, collected in patent publication US7064136B2, “Compounds” (AstraZeneca AB, priority 2000, dated 2006).
Where two headings read alike, the source gives them in different places. Non-standard residues stand in square brackets, D forms with d. Residues, ends and D or L forms follow the SMILES beside them. *: point of attachment. Cyclohexanecarbonyl = O=C(C1CCCCC1)*

Columns and labels:
[1] = test system: Neurokinin receptor; conditions: Elevated plus-maze
[2] = test system: Neurokinin receptor; conditions: Light-dark box
[3] = test system: Neurokinin receptor; conditions: Marmoset human intruder; Walsh et al., Psychopharmacology 121:186-191, 1995
[4] = test system: Neurokinin receptor
[5] = test system: Neurokinin receptor; conditions: Forced swim test (depression model); anti-depressant (only at 30 mg/kb bid); Vassout et al Neuropeptides 26/S1:38, 1994
[6] = Teixeira et al., Eur J Pharmacol 5;311(1):7-14, 1996
[7] = Walsh et al., Psychopharmacology 121:186-191, 1995
[8] = Stratton et al., Eur. J. Pharmacol. 250: R11-12, 1993

Structure (SMILES) | Outcome [1, 6] | Outcome [2, 7] | Outcome [3] | Outcome [2, 8] | also measured
CN(Cc1ccccc1)C(=O)[C@H](Cc1ccc2ccccc2c1)NC(=O)[C@@H]1C[C@@H](O)CN1C(=O)c1cn(C)c2ccccc12 [FK888] | anxiolytic | – | – | – | –
COC1(C[S@@+]([O-])c2ccccc2)CCN(CCc2c[nH]c3ccc(F)cc23)CC1 [GR159897] | – | anxiolytic | anxiolytic | – | –
C[C@H](NC(=O)CNC(=O)C1CCCCC1)C(=O)N[C@H](Cc1c[nH]c2ccccc12)C(=O)N[C@@H](Cc1ccccc1)C(=O)N(C)C [GR100679] (Cyclohexanecarbonyl-GA[dW]F-NMe2) | – | – | – | anxiolytic | –
Cc1cc(C)cc(C(=O)N2CC[C@H](NCc3ccnc4ccccc34)C[C@H]2Cc2ccccc2)c1 [CGP 49823] | – | – | – | – | Outcome ([4]; Social interaction test, Vassout et al Neuropeptides 26/S1:38, 1994): anxiolytic; Outcome ([4]; Social interaction, File Pharm Bio B 58(3):747-752, 1997): anxiolytic; Outcome [5]: depressant; Outcome ([1]; Vassout et al Neuropeptides 26/S1:38, 1994): inactive anti-
CC(=O)NC1(c2ccccc2)CCN(CC[C@H](CN(C)C(=O)c2ccccc2)c2ccc(Cl)c(Cl)c2)CC1 [SR48968] | anxiolytic | anxiolytic | anxiolytic | anxiolytic | –
